Measured values as given in PubChem BioAssay (NCI).
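Method: 48-hour compound exposure of cells in 96-well plates, five concentrations, linear interpolation of endpoints. Definition used: TGI = concentration required for complete inhibition of growth.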

How the values were obtained:
Assay in all cases: DTP human tumour cell line panel, 48 h
786-0 renal = system: 786-0 renal
A498 renal = system: A498 renal
A549 NSCLC = system: A549 NSCLC
ACHN renal = system: ACHN renal
BT-549 breast = system: BT-549 breast
CAKI-1 renal = system: CAKI-1 renal
CCRF-CEM leukemia = system: CCRF-CEM leukemia
COLO 205 colon = system: COLO 205 colon
EKVX NSCLC = system: EKVX NSCLC
HCC-2998 colon = system: HCC-2998 colon
HCT-116 colon = system: HCT-116 colon
HCT-15 colon = system: HCT-15 colon
HL-60(TB) leukemia = system: HL-60(TB) leukemia
HOP-62 NSCLC = system: HOP-62 NSCLC
HOP-92 NSCLC = system: HOP-92 NSCLC
HS 578T breast = system: HS 578T breast
HT29 colon = system: HT29 colon
IGROV1 ovarian = system: IGROV1 ovarian
K-562 leukemia = system: K-562 leukemia
KM12 colon = system: KM12 colon
LOX IMVI melanoma = system: LOX IMVI melanoma
M14 melanoma = system: M14 melanoma
MALME-3M melanoma = system: MALME-3M melanoma
MCF7 breast = system: MCF7 breast
MDA-MB-231 breast = system: MDA-MB-231 breast
MDA-MB-435 = system: MDA-MB-435
MDA-N = system: MDA-N
MOLT-4 leukemia = system: MOLT-4 leukemia
NCI-H226 lung = system: NCI-H226 lung
NCI-H23 lung = system: NCI-H23 lung
NCI-H460 lung = system: NCI-H460 lung
NCI-H522 lung = system: NCI-H522 lung
NCI/ADR-RES ovarian = system: NCI/ADR-RES ovarian
OVCAR-3 ovarian = system: OVCAR-3 ovarian
OVCAR-4 ovarian = system: OVCAR-4 ovarian
OVCAR-5 ovarian = system: OVCAR-5 ovarian
OVCAR-8 ovarian = system: OVCAR-8 ovarian
PC-3 prostate = system: PC-3 prostate
RPMI-8226 leukemia = system: RPMI-8226 leukemia
RXF 393 renal = system: RXF 393 renal
SF-268 CNS = system: SF-268 CNS
SF-295 CNS = system: SF-295 CNS
SK-MEL-2 melanoma = system: SK-MEL-2 melanoma
SK-MEL-28 melanoma = system: SK-MEL-28 melanoma
SK-MEL-5 melanoma = system: SK-MEL-5 melanoma
SK-OV-3 ovarian = system: SK-OV-3 ovarian
SN12C renal = system: SN12C renal
SNB-19 CNS = system: SNB-19 CNS
SNB-75 CNS = system: SNB-75 CNS
SR leukemia = system: SR leukemia
SW-620 colon = system: SW-620 colon
TK-10 renal = system: TK-10 renal
U251 CNS = system: U251 CNS
UACC-257 melanoma = system: UACC-257 melanoma
UO-31 renal = system: UO-31 renal
DU-145 prostate = system: DU-145 prostate
SF-539 CNS = system: SF-539 CNS
T-47D breast = system: T-47D breast
UACC-62 melanoma = system: UACC-62 melanoma

Measured: TGI

O=c1cnc2cc3ccccc3cc2[nH]1
not listed: DU-145 prostate | SF-539 CNS | T-47D breast | UACC-62 melanoma
> 100 µM: all other assays above

COc1ccc(Nc2nc(NNC(=O)Cc3ccccc3)nc(NNC(=O)c3ccncc3)n2)cc1
8.65 µM: UACC-62 melanoma
not listed: HL-60(TB) leukemia | HS 578T breast | NCI-H226 lung | PC-3 prostate | RPMI-8226 leukemia | RXF 393 renal | SK-MEL-2 melanoma
> 10 µM: all other assays above
